From US20110015371A1 (Vertex Pharmaceuticals Incorporated, priority 1994, published 2011)
Where a name gives a salt, the structure may show the parent alone. Non-standard residues stand in square brackets, D forms with d. Residues, ends and D or L forms follow the SMILES beside them. *: point of attachment. Hyp = O=C(O)[C@@H]1C[C@@H](O)CN1; Tic = O=C(O)[C@@H]1Cc2ccccc2CN1; Bn = c1ccc(C*)cc1

What was measured:
ICE = target: T1, ICE (Homo sapiens, UniProt P29466); assay: Enzyme assay with UV-visible substrate (Succinyl-Tyr-Val-Ala-Asp-pNitroanilide); assay type: biochemical
T1 sequence (P29466 120-297 limits assumed): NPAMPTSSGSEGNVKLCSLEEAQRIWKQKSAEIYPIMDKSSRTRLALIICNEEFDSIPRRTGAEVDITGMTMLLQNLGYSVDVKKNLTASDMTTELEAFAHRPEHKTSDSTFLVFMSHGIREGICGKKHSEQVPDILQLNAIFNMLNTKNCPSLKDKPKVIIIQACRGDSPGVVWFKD
T1 sequence (P29466 317-404 limits assumed): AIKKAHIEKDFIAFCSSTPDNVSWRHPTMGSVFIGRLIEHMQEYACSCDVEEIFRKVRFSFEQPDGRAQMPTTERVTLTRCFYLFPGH
Procedure: 1. Enzyme Assay with UV-Visible Substrate
This assay is run using an Succinyl-Tyr-Val-Ala-Asp-pNitroanilide substrate. Synthesis of analogous substrates is described by L. A. Reiter (Int. J. Peptide Protein Res. 43, 87-96 (1994)). The assay mixture contains:
The visible ICE assay is run in a 96-well microtiter plate. Buffer, ICE and DMSO (if inhibitor is present) are added to the wells in the order listed. The components are left to incubate at room temperature for 15 minutes starting at the time that all components are present in all wells. The microtiter plate reader is set to incubate at 37° C. After the 15 minute incubation, substrate is added directly to the wells and the reaction is monitored by following the release of the chromophore (pNA) at 405-603 nm at 37° C. for 20 minutes. A linear fit of the data is performed and the rate is calculated in mOD/min. DMSO is only present during experiments involving inhibitors, buffer is used to make up the volume to 100 μl in the other experiments.
For determination of enzyme inhibition constants (Ki) or the mode of inhibition (competitive, uncompetitive or noncompetitive), the rate data determined in the enzyme assays at varying inhibitor concentrations are computer-fit to standard enzyme kinetic equations (see I. H. Segel, Enzyme Kinetics, Wiley-Interscience, 1975).

[1] = tested on: Human Peripheral Blood Mononuclear Cells (PBMC) or Enriched Adherent Mononuclear Cells; assay: Cell assay: IL-1β assay with human PBMC or enriched adherent mononuclear cells; assay type: cell-based; conditions: Example 4 table, LPS-stimulated cells, mature IL-1β in supernatant by ELISA
Source text: IL-1β Assay with a Mixed Population of Human Peripheral Blood Mononuclear Cells (PBMC) or Enriched Adherent Mononuclear Cells
Processing of pre-IL-1S by ICE can be measured in cell culture using a variety of cell sources. Human PBMC obtained from healthy donors provides a mixed population of lymphocyte subtypes and mononuclear cells that produce a spectrum of interleukins and cytokines in response to many classes of physiological stimulators. Adherent mononuclear cells from PBMC provides an enriched source of normal monocytes for selective studies of cytokine production by activated cells.
An initial dilution series of test compound in DMSO or ethanol is prepared, with a subsequent dilution into RPMI-10% FBS media (containing 2 mM L-glutamine, 10 mM HEPES, 50 U and 50 ug/ml pen/strep) respectively to yield drugs at 4× the final test concentration containing 0.4% DMSO or 0.4% ethanol. The final concentration of DMSO is 0.1% for all drug dilutions. A concentration titration which brackets the apparent Ki for a test compound determined in an ICE inhibition assay is generally used for the primary compound screen.
We generally test 5-6 compound dilutions and have performed the cellular component of the assay in duplicate, with duplicate ELISA determinations on each cell culture supernatant.
Buffy coat cells isolated from one pint human blood (yielding 40-45 ml final volume plasma plus cells) are diluted with media to 80 ml and LeukoPREP separation tubes (Becton Dickinson) are each overlaid with 10 ml of cell suspension. After 15 min centrifugation at 1500-1800×g, the plasma/media layer is aspirated and then the mononuclear cell layer is collected with a Pasteur pipette and transferred to a 15 ml conical centrifuge tube (Corning). Media is added to bring the volume to 15 ml, gently mix the cells by inversion and centrifuge at 300×g for 15 min. Resuspend the PBMC pellet in a small volume of media, count cells and adjust to 6×10^6 cells/ml.
For the cellular assay, add 1.0 ml of the cell suspension to each well of a 24-well flat bottom tissue culture plate (Corning), 0.5 ml test compound dilution and 0.5 ml LPS solution (Sigma #L-3012; 20 ng/ml solution prepared in complete RPMI media; final LPS concentration 5 ng/ml). The 0.5 ml additions of test compound and LPS are usually sufficient to mix the contents of the wells. Three control mixtures are run per experiment, with either LPS alone, solvent vehicle control, and/or additional media to adjust the final culture volume to 2.0 ml. The cell cultures are incubated for 16-18 hr at 37° C. in the presence of 5% CO2.
At the end of the incubation period, cells are harvested and transferred to 15 ml conical centrifuge tubes. After centrifugation for 10 min at 200×g, supernatants are harvested and transferred to 1.5 ml Eppendorf tubes. It may be noted that the cell pellet may be utilized for a biochemical evaluation of pre-IL-1S and/or mature IL-1β content in cytosol extracts by western blotting or ELISA with pre-IL-1β specific antisera.
PBMC are isolated and prepared as described above. Media (1.0 ml) is first added to wells followed by 0.5 ml of the PBMC suspension. After a one hour incubation, plates are gently shaken and nonadherent cells aspirated from each well. Wells are then gently washed three times with 1.0 ml of media and final resuspended in 1.0 ml media. The enrichment for adherent cells generally yields 2.5−3.0×10^5 cells per well. The addition of test compounds, LPS, cell incubation conditions and processing of supernatants proceeds as described above.
We have used Quantikine kits (R&D Systems) for measurement of mature IL-1β. Assays are performed according to the manufacturer's directions. Mature IL-1β levels of about 1-3 ng/ml in both PBMC and adherent mononuclear cell positive controls are observed. ELISA assays are performed on 1:5, 1:10 and 1:20 dilutions of supernatants from LPS-positive controls to select the optimal dilution for supernatants in the test panel.

Row | Ki (ICE; Example 4 table) [nM] | Ki (ICE; Example 6 table) [nM] | SMILES | other results
1 | 970 |  | CC(C(=O)N[C@H](C=O)CC(=O)O)n1c(Cc2ccccc2)ccc(NC(=O)CCc2ccccc2)c1=O (mixture of isomers) [Compound 54h, 3(S), N(2(R,S))3-(2-(6-Benzyl-1,2-dihydro-2-oxo-3-(3-phenylpropionyl)amino-1-pyridyl)propionylamino)-4-oxobutanoic acid] | 
2 | 35000 |  | O=CC(CC(=O)O)NC(=O)C1CCc2ncc(NC(=O)c3ccccc3)c(=O)n21 (single isomer, unassigned) [Compound 7a] | 
3 | 1200 |  | O=CC(CC(=O)O)NC(=O)C1CCc2ncc(NC(=O)c3ccccc3)c(=O)n21 (single isomer, unassigned) [Compound 7b] | 
4 | 19 |  | O=C[C@H](CC(=O)O)NC(=O)[C@@H]1CCCN2C(=O)CC[C@H](NC(=O)CCc3ccccc3)C(=O)N12 [Compound 47a, [3S, (1S,9S)]3-(6,10-Dioxo-octahydro-9-(3-phenylpropionylamino)-6H-pyridazino[1,2-a][1,2]diazepine-1-carboxamido)-4-oxobutanoic acid] | IC50 ([1]; Homo sapiens, PBMC): 2100 nM
5 | 1200 |  | O=C[C@H](CC(=O)O)NC(=O)Cn1c(CCc2ccccc2)ccc(NC(=O)CCc2ccccc2)c1=O [Compound 54c, 3(S)3-(1,2-Dihydro-2-oxo-6-phenethyl-3(3-phenyl-propionyl)amino-1-pyridyl)acetylamino-4-oxobutanoic acid] | IC50 ([1]; Homo sapiens, PBMC): > 19000 nM
6 | 900 |  | O=C[C@H](CC(=O)O)NC(=O)Cn1c(-c2ccccc2)ccc(NC(=O)CCc2ccccc2)c1=O [Compound 54f, 3(S)3-(1,2-Dihydro-2-oxo-6-phenyl-3-(3-phenyl-propionyl)amino-1-pyridyl)acetylamino-4-oxobutanoic acid] | 
7 | 54 |  | CC(=O)N[C@@H](Cc1ccc(O)cc1)C(=O)Nc1ccc(Cc2ccccc2)n(CC(=O)N[C@H](C=O)CC(=O)O)c1=O [Compound 54i, 3(S)3-(3-(2-Acetyl-L-tyrosinyl)amino-6-benzyl-1,2-dihydro-2-oxo-1-pyridyl)acetylamino-4-oxobutanoic acid] | IC50 ([1]; Homo sapiens, PBMC): 2400 nM
8 | 215 |  | O=C[C@H](CC(=O)O)NC(=O)Cn1c(Cc2ccccc2)ccc(NC(=O)CCCc2ccccc2)c1=O [Compound 54l, 3(S)3-(6-Benzyl-1,2-dihydro-2-oxo-3-(4-phenylbutyryl)carbonylamino-1-pyridyl)acetylamino-4-oxobutanoic acid] | IC50 [1]: 7000 nM
9 |  | 680 | O=C(O)C[C@H](NC(=O)[C@@H]1CCc2ncc(NC(=O)CCc3ccccc3)c(=O)n21)C(=O)c1ncc(-c2c(Cl)cccc2Cl)o1 [Compound 102c, 4-[5-(2,6-Dichloro-phenyl)-oxazol-2-yl]-4-oxo-(3S)-{[4-oxo-3-(3-phenyl-propionylamino)-4,6,7,8-tetrahydro-pyrrolo[1,2-a]pyrimidine-(6S)-carbonyl]-amino}-butyric acid] | 
10 |  | 3700 | O=C[C@H](CC(=O)O)NC(=O)CN1CCN(Cc2ccccc2)C[C@H](NC(=O)OCc2ccccc2)C1=O [Compound 114b, 3(S)-{2-[4-Benzyl-7-oxo-6(S)—(N-benzyloxycarbonylamino)-[1,4]diazepan-1-yl]-acetylamino}-4-oxo-butyric acid trifluoroacetic acid salt] | 
11 |  | 12500 | O=C[C@H](CC(=O)O)NC(=O)[C@@H]1CCCN2C(=O)C[C@@H](NC(=O)CCc3ccccc3)C(=O)N12 [Compound 132b] | 

The remaining lines, values behind:

Row | SMILES | Ki (ICE; Example 4 table) [nM] | Ki (ICE; Example 6 table) [nM] | other results
12 | O=C[C@H](CC(=O)O)NC(=O)CN(CCc1ccccc1)C(=O)c1ncc(CCCc2ccccc2)[nH]1 [Compound 25, (3S)-(2-{Phenethyl-[5-(3-phenylpropyl)-1H-imidazole-2-carbonyl]amino}acetylamino)-4-oxobutanoic acid trifluoroacetic acid salt] | 6200 |  | 
13 | CC(C)[C@H](NC(=O)OCc1ccccc1)C(=O)N[C@@H](C)C(=O)N[C@@H](CC(=O)O)C(=O)c1nc2ccccc2o1 [Compound 63, (3S)N-(N-Benzyloxycarbonyl-(S)-valinyl-(S)-alaninyl)-3-amino-4-(2-benzoxazolyl)-4-oxobutanoate] | 850 |  | IC50 [1]: 4100 nM
14 | O=C[C@H](CC(=O)O)NC(=O)CN1CCCC[C@H](NC(=O)CCc2ccc(O)cc2)C1=O [Compound 92, 3-(S)-(2-(3[3-(S)-(4-Hydroxy-phenyl)-propionylamino]-2-oxo-azepan-1-yl)-acetylamino)-4-oxo-butyric acid] |  | 3800 | 
15 | O=C[C@H](CC(=O)O)NC(=O)[C@@H]1CS[C@@H]2CCC[C@H](NC(=O)CCc3ccccc3)C(=O)N21 [Compound 141] |  | 670 | 
16 | CC(C)[C@H](NC(=O)OCc1ccccc1)C(=O)N[C@@H](C)C(=O)N[C@@H](CC(=O)O)C(=O)c1ncco1 [Compound 152] |  | 8800 | 
17 | CC(C)[C@H](NC(=O)OCc1ccccc1)C(=O)N[C@@H](C)C(=O)N[C@@H](CC(=O)O)C(=O)c1nc(-c2ccccc2)co1 [Compound 153] |  | 240 | 
18 | CC(=O)N[C@@H](Cc1ccc(O)cc1)C(=O)N[C@H](C(=O)N1CCC[C@H]1C(=O)N[C@@H](CC(=O)O)C(=O)c1ncc(-c2c(Cl)cccc2Cl)o1)C(C)C [Compound 155] |  | 23 | 
19 | O=C(O)C[C@H](NC(=O)[C@@H]1CCCN1C(=O)c1ncc(CCCc2ccccc2)[nH]1)C(=O)c1ncc(-c2c(Cl)cccc2Cl)o1 [Compound 157] |  | 260 | 
20 | CC(=O)N[C@H](C(=O)N1C[C@H](OCc2ccccc2)C[C@H]1C(=O)N[C@H](C=O)CC(=O)O)C(C)C [Compound 158] (Ac-Val-[Hyp](Bn)-Asp-aldehyde) |  | 1100 | 
21 | CC(=O)N[C@@H](Cc1ccc(O)cc1)C(=O)N[C@H](C(=O)N1C[C@H](Oc2ccccc2)CC1C(=O)N[C@@H](CC(=O)O)C(=O)CSCc1ccccc1Cl)C(C)C (stereo partly drawn) [Compound 161] |  | 11 | 
22 | CC(=O)N[C@@H](Cc1ccc(O)cc1)C(=O)N[C@H](C(=O)N1Cc2ccccc2C[C@H]1C(=O)N[C@H](C=O)CC(=O)O)C(C)C [L, N-[2-(N-Acetyl-tyrosinyl-valinyl)-(S)-1,2,3,4-tetrahydroisoquinoline-3-carbonyl]-3-amino-oxobutanoic acid] (Ac-YV[Tic]D-aldehyde) |  |  | Ki (ICE; Example 2 table): 14 nM
